Measurements taken from patent US20240408169A1 (priority 2023, published 2024).
*1 amine or outer side, *2 acyl side, *3 side chain or, on linkers, in order; H or OH if unused. Where a SMILES comes first, the peptide text is derived from it. Bridges are numbered along the chain shown (N, C = ends). [ ]: non-standard residue; d: D form. The star is where a group is joined. X47 = C[C@@H]1CN(c2ccc(-c3ccc(Cl)cc3C[C@@H](C(=O)[*:2])N(C)[*:1])cc2)C[C@H](C)N1C; X74 = C[C@@H]1CN(c2ccc(-c3ccc(Cl)cc3C[C@@H](C(=O)[*:2])N(C)[*:1])cc2)C[C@@H](C)O1; X34 = CN1CC(N2CCN(c3ccc(-c4ccc(Cl)cc4C[C@@H](C(=O)[*:2])N(C)[*:1])cc3)CC2)C1; NMePhe(2-(4-MorPh),5-Cl) = CN[C@@H](Cc1cc(Cl)ccc1-c1ccc(N2CCOCC2)cc1)C(=O)O; X92 = CN1CCN(C(=O)c2ccc(-c3ccc(Cl)cc3C[C@@H](C(=O)[*:2])N(C)[*:1])cc2)CC1; X23 = CCN([C@@H](Cc1cc(Cl)ccc1-c1ccc(N2CCN(C)CC2)cc1)C(=O)[*:2])[*:1]; X59 = CC(c1ccc(-c2ccc(Cl)cc2C[C@@H](C(=O)[*:2])N(C)[*:1])cc1)N1CCOCC1; X37 = CN1CCN(c2ccc(-c3ccc(F)cc3C[C@@H](C(=O)[*:2])N(C)[*:1])cn2)CC1; X49 = CN1CCc2ccc(-c3ccc(Cl)cc3C[C@@H](C(=O)[*:2])N(C)[*:1])cc2C1; X56 = CN1CCc2cc(-c3ccc(Cl)cc3C[C@@H](C(=O)[*:2])N(C)[*:1])ccc2C1; NMehhhLys(Me) = CN([C@@H](CCCCCCCN(C)[*:3])C(=O)[*:2])[*:1]; X96 = CN([C@@H](Cc1cc(Cl)cc2ccn(C)c12)C(=O)[*:2])[*:1]; X41 = CN([C@@H](Cc1cc(Cl)cc2c1ccn2C)C(=O)[*:2])[*:1]; cBuCO(3,3-F2-1-CF3) = O=C(C1(C(F)(F)F)CC(F)(F)C1)*; Pro(trans-4-F) = O=C(O)[C@@H]1C[C@@H](F)CN1; Gly(cPr) = N[C@H](C(=O)O)C1CC1; X102 = C[C@]1(C(=O)*)CC1(F)F; X9 = C[C@@]1(C(=O)*)CC1(F)F; X20 = O=C(C1(Cl)CC1)*

How the values were obtained:
[1] = system: OVCAR3 cells; assay: MTT proliferation assay, OVCAR3; assay type: cell-based; details: 5 days compound exposure, 1:3 serial dilution starting at 10 μM;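 further: compound given as an 8- or 10-point series, one day after plating, with exposure covering roughly 3-4 cell doublings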
[2] = target: T1, CyclinE1/CDK2 (Homo sapiens, UniProt P24864); assay: Fluorescence Polarization (FP) competitive binding assay, Cyclin E1/Cdk2; details: 10 nM Cyclin E1/Cdk2, 2 nM FAM probe; average of 2-3 independent experiments; read-out: Cyclin E FP IC50;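 further: readings taken after two-hour equilibration at room temperature in HEPES buffer with NaCl, DTT, NP-40 and BSA, IC50 fitted from eight-concentration serial dilution series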
T1 construct: purchased Eurofins, discovery 14-475

[3] = target: T2, CyclinA2/CDK2 (Homo sapiens, UniProt P20248); assay: Fluorescence Polarization (FP) competitive binding assay, Cyclin A2/Cdk2; details: 8 nM Cyclin A2/Cdk2, 2 nM FAM probe; average of 2-3 independent experiments; read-out: Cyclin A FP IC50;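 further: plates equilibrated two hours at room temperature before polarization reading, IC50 fitted from eight-concentration compound titration curves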
T2 construct: purchased CRELUX Protein Services

[4] = system: WI-38 cells; assay: MTT proliferation assay, WI-38; assay type: cell-based; details: 3 days compound exposure, 1:3 serial dilution starting at 10 μM;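 further: Eight- or ten-point dilution series, with exposure length chosen to span about three to four cell doublings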
[5] = system: NCI-H1048 cells; assay: MTT proliferation assay, NCI-H1048; assay type: cell-based; details: 5 days compound exposure, 1:3 serial dilution starting at 10 μM;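 further: Dose-response in 96-well plates over 8 or 10 concentration points, with exposure spanning 3-4 cell doublings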
[6] = target: T3, CyclinB1/CDK1 (Homo sapiens, UniProt P14635); assay: Fluorescence Polarization (FP) competitive binding assay, Cyclin B1/Cdk1; details: 10 nM Cyclin B1/Cdk1, 2 nM FAM probe; average of 2-3 independent experiments; read-out: Cyclin B FP IC50;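 further: fluorescence polarization read after equilibration at room temperature, with IC50 taken from serially diluted dose-response curves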
T3 construct: purchased Eurofins, discovery 14-450

Row | SMILES | GI50 [1] | IC50 [2] | IC50 [3] | GI50 [4] | GI50 [5] | IC50 [6]
1 | CC(C)C[C@@H]1NC(=O)[C@@H](N(C)C(=O)[C@@H](NC(=O)[C@@H]2C[C@@H](F)CN2C(=O)C2(C(F)(F)F)CC(F)(F)C2)C2CC2)CCCCCCCN(C)C(=O)[C@H](Cc2cc(Cl)ccc2-c2ccc(N3CCN(C4CN(C)C4)CC3)cc2)N(C)C1=O [Example 383, (2S,4R)—N—((S)-2-(((3S,6S,9S)-3-((4-chloro-4′-(4-(1-methylazetidin-3-yl)piperazin-1-yl)-[1,1′-biphenyl]-2-yl)methyl)-6-isobutyl-1,4-dimethyl-2,5,8-trioxo-1,4,7-triazacyclohexadecan-9-yl)(methyl)amino)-1-cyclopropyl-2-oxoethyl)-1-(3,3-difluoro-1-(trifluoromethyl)cyclobutane-1-carbonyl)-4-fluoropyrrolidine-2-carboxamide] ({cBuCO(3,3-F2-1-CF3)}-[Pro(trans-4-F)][Gly(cPr)][NMehhhLys(Me)]L[X34]; lactam 3-C) | 0.01 µM | 0.53 µM | 0.02 µM | 2.7 µM | 0.01 µM | 0.02 µM
2 | CC(C)C[C@@H]1NC(=O)[C@@H](N(C)C(=O)[C@@H](NC(=O)[C@@H]2C[C@@H](F)CN2C(=O)C2(C(F)(F)F)CC(F)(F)C2)C2CC2)CCCCCCCN(C)C(=O)[C@H](Cc2cc(Cl)ccc2-c2ccc(N3C[C@@H](C)N(C)[C@@H](C)C3)cc2)N(C)C1=O [Example 384] ({cBuCO(3,3-F2-1-CF3)}-[Pro(trans-4-F)][Gly(cPr)][NMehhhLys(Me)]L[X47]; lactam 3-C) | 0.01 µM | 0.59 µM | 0.02 µM | 2.21 µM | 0.01 µM | 0.02 µM
3 | CCN(C(=O)[C@@H](NC(=O)[C@@H]1C[C@@H](F)CN1C(=O)C1(C(F)(F)F)CC(F)(F)C1)C1CC1)[C@H]1CCCCCCCN(C)C(=O)[C@H](Cc2cc(Cl)ccc2-c2ccc(N3CCN(C)CC3)cc2)N(C)C(=O)[C@H](CC(C)C)NC1=O [Example 388] | 0.02 µM | 3.93 µM | 0.02 µM | 3.5 µM | 0.02 µM | 0.02 µM
4 | CC(C)C[C@@H]1NC(=O)[C@@H](N(C)C(=O)[C@@H](NC(=O)[C@@H]2C[C@@H](F)CN2C(=O)C2(C(F)(F)F)CC(F)(F)C2)C2CC2)CCCCCCCN(C)C(=O)[C@H](Cc2cc(Cl)ccc2-c2ccc(N3C[C@@H](C)O[C@H](C)C3)cc2)N(C)C1=O [Example 389] ({cBuCO(3,3-F2-1-CF3)}-[Pro(trans-4-F)][Gly(cPr)][NMehhhLys(Me)]L[X74]; lactam 3-C) | 0.01 µM | 0.79 µM | 0.02 µM | 17.6 µM | 0.02 µM | 0.02 µM
5 | CC(C)C[C@@H]1NC(=O)[C@@H](N(C)C(=O)[C@@H](NC(=O)[C@@H]2C[C@@H](F)CN2C(=O)C2(C(F)(F)F)CC(F)(F)C2)C2CC2)CCCCCCCN(C)C(=O)[C@H](Cc2cc(Cl)ccc2-c2ccc(C(=O)N3CCN(C)CC3)cc2)N(C)C1=O [Example 390] ({cBuCO(3,3-F2-1-CF3)}-[Pro(trans-4-F)][Gly(cPr)][NMehhhLys(Me)]L[X92]; lactam 3-C) | 0.02 µM | 0.87 µM | 0.02 µM | 9.24 µM | 0.03 µM | 0.02 µM
6 | CC(C)C[C@@H]1NC(=O)[C@@H](N(C)C(=O)[C@@H](NC(=O)[C@@H]2C[C@@H](F)CN2C(=O)C2(C(F)(F)F)CC(F)(F)C2)C2CC2)CCCCCCCN(C)C(=O)[C@H](Cc2cc(F)ccc2-c2ccc(N3CCN(C)CC3)nc2)N(C)C1=O [Example 391] ({cBuCO(3,3-F2-1-CF3)}-[Pro(trans-4-F)][Gly(cPr)][NMehhhLys(Me)]L[X37]; lactam 3-C) | 0.01 µM | 0.61 µM | 0.03 µM | 7.82 µM | 0.01 µM | 0.02 µM
7 | CC(C)C[C@@H]1NC(=O)[C@@H](N(C)C(=O)[C@@H](NC(=O)[C@@H]2C[C@@H](F)CN2C(=O)C2(C(F)(F)F)CC(F)(F)C2)C2CC2)CCCCCCCN(C)C(=O)[C@H](Cc2cc(Cl)cc3ccn(C)c23)N(C)C1=O [Example 392, (2S,4R)—N—((S)-2-(((3S,6S,9S)-3-((5-chloro-1-methyl-1H-indol-7-yl)methyl)-6-isobutyl-1,4-dimethyl-2,5,8-trioxo-1,4,7-triazacyclohexadecan-9-yl)(methyl)amino)-1-cyclopropyl-2-oxoethyl)-1-(3,3-difluoro-1-(trifluoromethyl)cyclobutane-1-carbonyl)-4-fluoropyrrolidine-2-carboxamide] ({cBuCO(3,3-F2-1-CF3)}-[Pro(trans-4-F)][Gly(cPr)][NMehhhLys(Me)]L[X96]; lactam 3-C) | 0.17 µM | 0.83 µM | 0.23 µM | 14.7 µM | 0.17 µM | 0.02 µM
8 | CC(C)C[C@@H]1NC(=O)[C@@H](N(C)C(=O)[C@@H](NC(=O)[C@@H]2C[C@@H](F)CN2C(=O)C2(C(F)(F)F)CC(F)(F)C2)C2CC2)CCCCCCCN(C)C(=O)[C@H](Cc2cc(Cl)cc3c2ccn3C)N(C)C1=O [Example 393] ({cBuCO(3,3-F2-1-CF3)}-[Pro(trans-4-F)][Gly(cPr)][NMehhhLys(Me)]L[X41]; lactam 3-C) | 1.31 µM | 1.69 µM | 6.67 µM | 13.7 µM | 1.79 µM | 0.047 µM
9 | CC(C)C[C@@H]1NC(=O)C(N(C)C(=O)[C@@H](NC(=O)[C@@H]2C[C@@H](F)CN2C(=O)C2(C(F)(F)F)CC(F)(F)C2)C2CC2)C/C=C\CCCCN(C)C(=O)[C@H](Cc2cc(Cl)ccc2-c2ccc(N3CCN(C)CC3)cc2)N(C)C1=O (stereo partly drawn) [Example 397] | 0.01 µM | 0.26 µM | 0.02 µM | 3.56 µM | 0.01 µM | 0.02 µM
10 | CC(C)C[C@@H]1NC(=O)[C@@H](N(C)C(=O)[C@@H](NC(=O)[C@@H]2C[C@@H](F)CN2C(=O)C2(Cl)CC2)C2CC2)CCCCCCCN(C)C(=O)[C@H](Cc2cc(Cl)ccc2-c2ccc(N3CCOCC3)cc2)N(C)C1=O [Example 398] (X20-[Pro(trans-4-F)][Gly(cPr)][NMehhhLys(Me)]L[NMePhe(2-(4-MorPh),5-Cl)]; lactam 3-C) | 0.19 µM | 0.59 µM | 0.02 µM | 3.64 µM | 0.14 µM | 0.02 µM
11 | CC(C)C[C@@H]1NC(=O)[C@@H](N(C)C(=O)[C@@H](NC(=O)[C@@H]2C[C@@H](F)CN2C(=O)[C@]2(C)CC2(F)F)C2CC2)CCCCCCCN(C)C(=O)[C@H](Cc2cc(Cl)ccc2-c2ccc(N3CCOCC3)cc2)N(C)C1=O [Example 399] (X9-[Pro(trans-4-F)][Gly(cPr)][NMehhhLys(Me)]L[NMePhe(2-(4-MorPh),5-Cl)]; lactam 3-C) | 0.11 µM | 3 µM | 0.07 µM | 3.65 µM | 0.22 µM | 0.02 µM
12 | CC(C)C[C@@H]1NC(=O)[C@@H](N(C)C(=O)[C@@H](NC(=O)[C@@H]2C[C@@H](F)CN2C(=O)[C@@]2(C)CC2(F)F)C2CC2)CCCCCCCN(C)C(=O)[C@H](Cc2cc(Cl)ccc2-c2ccc(N3CCOCC3)cc2)N(C)C1=O [Example 400] (X102-[Pro(trans-4-F)][Gly(cPr)][NMehhhLys(Me)]L[NMePhe(2-(4-MorPh),5-Cl)]; lactam 3-C) | 0.01 µM | 0.49 µM | 0.02 µM | 4.61 µM | 0.01 µM | 0.02 µM
13 | CC(C)C[C@@H]1NC(=O)[C@@H](N(C)C(=O)[C@@H](NC(=O)[C@@H]2C[C@@H](F)CN2C(=O)C2(C(F)(F)F)CC(F)(F)C2)C2CC2)CCCCCCCN(C)C(=O)[C@H](Cc2cc(Cl)ccc2-c2ccc(C(C)N3CCOCC3)cc2)N(C)C1=O (stereo partly drawn) [Example 403] ({cBuCO(3,3-F2-1-CF3)}-[Pro(trans-4-F)][Gly(cPr)][NMehhhLys(Me)]L[X59]; lactam 3-C) | 0.01 µM | 0.67 µM | 0.02 µM | 3.99 µM | 0.01 µM | 0.02 µM
14 | CCN1C(=O)[C@H](CC(C)C)NC(=O)[C@@H](N(C)C(=O)[C@@H](NC(=O)[C@@H]2C[C@@H](F)CN2C(=O)C2(C(F)(F)F)CC(F)(F)C2)C2CC2)CCCCCCCN(C)C(=O)[C@@H]1Cc1cc(Cl)ccc1-c1ccc(N2CCN(C)CC2)cc1 [Example 405] ({cBuCO(3,3-F2-1-CF3)}-[Pro(trans-4-F)][Gly(cPr)][NMehhhLys(Me)]L[X23]; lactam 3-C) | 0.05 µM | 2.56 µM | 0.05 µM | 2.16 µM | 0.04 µM | 0.02 µM
15 | CC(C)C[C@@H]1NC(=O)[C@@H](N(C)C(=O)[C@@H](NC(=O)[C@@H]2C[C@@H](F)CN2C(=O)C2(C(F)(F)F)CC(F)(F)C2)C2CC2)CCCCCCCN(C)C(=O)[C@H](Cc2cc(Cl)ccc2-c2ccc3c(c2)CN(C)CC3)N(C)C1=O [Example 406] ({cBuCO(3,3-F2-1-CF3)}-[Pro(trans-4-F)][Gly(cPr)][NMehhhLys(Me)]L[X49]; lactam 3-C) | 0.04 µM | 1.78 µM | 0.02 µM | 3.35 µM | 0.02 µM | 0.02 µM
16 | CC(C)C[C@@H]1NC(=O)[C@@H](N(C)C(=O)[C@@H](NC(=O)[C@@H]2C[C@@H](F)CN2C(=O)C2(C(F)(F)F)CC(F)(F)C2)C2CC2)CCCCCCCN(C)C(=O)[C@H](Cc2cc(Cl)ccc2-c2ccc3c(c2)CCN(C)C3)N(C)C1=O [Example 407] ({cBuCO(3,3-F2-1-CF3)}-[Pro(trans-4-F)][Gly(cPr)][NMehhhLys(Me)]L[X56]; lactam 3-C) | 0.02 µM | 1.46 µM | 0.02 µM | 3.01 µM | 0.01 µM | 0.02 µM
